Measured values as given in publication PMC9186351, “Discovery of N-quinazolinone-4-hydroxy-2-quinolone-3-carboxamides as DNA gyrase B-targeted antibacterial agents” (Journal of Enzyme Inhibition and Medicinal Chemistry, 2022).
Converted amounts (≈) assume the structure as drawn. Like-named read-outs stand apart in the source and are kept apart here.

Experiments:
[1] = Mouse microsomal stability assay; format: in vitro ADME; settings: pH 7.4; mouse liver microsomes, NADPH; read-out: In vitro metabolic stability t1/2 (min) in liver microsomes
Protocol: The mouse liver microsomes were purchased from BioreclamationIVT and stored at −80 °C. The working solutions (0.2 mM) of the control compound, i.e. dextromethorphan, and the test compound dissolved in DMSO were prepared. Terfenadine (5 ng/mL) and tolbutamide (10 ng/mL) dissolved in acetonitrile were used as two quenching solutions. NADPH was dissolved in the phosphate buffer (50 mM K2HPO4, pH 7.4) at 5 mM. The mouse liver microsomes were thawed at 37 °C. The concentration of the stock solution was 20 mg/mL. The working solution (0.629 mg/mL) was prepared by dilution in phosphate buffer.
The working solution of the control/test compound (1.5 µL) was mixed with the liver microsome working solution (238.5 µL) in a 96-well plate and pre-incubated at 37 °C for 5 min. The 5 mM NADPH working solution (60 µL) was added to the solution to initiate the metabolic reaction. At each time point (0, 5, 15, 30, and 60 for the control/test compound), 30 µL of the reaction mixture was sampled and moved to 300 µL of quenching solutions. When the sampling was done, each sample was centrifuged at 4000 rpm at 4 °C for 15 min. The supernatant was analysed with the same HPLC system as the plasma stability assay. The residues (%) of the test/control compound along with the incubation time were calculated based on which the half-life (t1/2) value was determined.

in vitro = in vitro ADME, mouse; settings: mouse plasma, 37 °C; read-out: In vitro metabolic stability t1/2 (min) in plasma
Protocol: The mouse plasma was purchased from Charles River and stored at −20 °C. The stock solution of the test compound dissolved in DMSO (50 mM) was prepared and diluted to obtain a working solution at the concentration of 0.2 mM. The working solution of the control compound, i.e. propantheline, was similarly prepared (0.2 mM). Terfenadine (5 ng/mL) and tolbutamide (10 ng/mL) dissolved in acetonitrile were used as two quenching solutions.
The mouse plasma was pre-warmed at 37 °C for 15 min. The working solution of the test/control compound (2 µL) was then added to the mouse plasma (398 µL) in a 96-well plate. Next, 30 µL of the reaction mixture was sampled and moved to 300 µL of quenching solutions at each time point: 0, 5, 15, 30, 60, and 120 min for the control compound and 0, 15, 30, 60, and 120 min for the test compound. When the sampling was done, each sample was centrifuged at 4000 rpm at 4 °C for 15 min. Then, 100 µL of the supernatant was removed and mixed with 100 µL of distilled water for LC-MS/MS analysis with Shimadzu HPLC system and the AB Sciex API 4000 QTRAP instrument. The remaining compound (%) after incubation in plasma versus the incubation time was plotted. The half-life (t1/2) value of the compound was determined via linear regression from the plot.

S. aureus DNA gyrase = settings: Figure 1; cited from earlier work
[2] = test system: methicillin-resistant S. aureus (MRSA); assay: MIC by broth microdilution, MRSA strains; format: cell-based; settings: Staphylococcus aureus
Protocol: (§1) All of the bacterial strains used in this study were obtained from the Collection Centre of Pathogen Microorganism of Chinese Academy of Medical Sciences (CAMS-CCPM-A) in China. All of the isolates were stored at −80 °C and streaked on tryptic soy agar (TSA) plates to obtain overnight cultures. The MICs of the test compounds were determined by the broth microdilution method in accordance with the Clinical and Laboratory Standards Institute (CLSI) guidelines.[20] Cation-adjusted Mueller-Hinton broth (CAMHB) was used as the growth medium for MIC assays. Briefly, 100 μL of serially diluted compounds (starting concentrations were 64 μg/mL) in CAMH broth were added to the wells of 96-well microtiter plates. Then, 10 µL of 5 × 10^6 CFU/mL bacterial culture was added to each well. […] The MIC was defined as the lowest concentration of a compound that inhibited visual growth of the bacteria. Vancomycin was set as the positive control for this assay.

MRSA/VISA strains = assay: MIC by broth microdilution, MRSA and VISA panel; format: cell-based, S. aureus; settings: Staphylococcus aureus, ATCC 33591 / ATCC 43300 / ATCC 700699 / MRSA / VISA, read-out: MICs for MRSA and VISA strains
Protocol: as §1

[3] = test system: vancomycin intermediate resistant S. aureus (VISA); assay: MIC by broth microdilution, VISA strains; format: cell-based
Protocol: as §1

[4] = test system: methicillin-sensitive S. aureus (MSSA); assay: MIC by broth microdilution, MSSA isolates; format: cell-based; settings: Staphylococcus aureus
Protocol: as §1

[5] = Cytotoxicity, SRB assay, HepG2; format: cell-based, human; settings: human, HepG2 cells, read-out: CC50 for HepG2 cells (positive control)
Protocol: (§2) Cytotoxicity in terms of CC50 was determined by the SRB assay according to the protocol described in our previous publication.[16] Briefly, human HUVECs or HepG2 cells were seeded in the wells of 96-well plates at a concentration of 1 × 10^5 cells per well and incubated at 37 °C for 24 h. […] The cells were fixed with 10% trichloroacetic acid (w/v) at 4 °C for 1 h, washed five times with distilled water, and stained with 0.4% SRB solution at room temperature for another 20 min. The cells were then washed five times with 1% acetic acid and air-dried. The protein-bound dye was dissolved in 10 mM Tris-base solution and shaken for 5 min. The optical density (OD) was measured at 540 nm using a microplate reader to estimate the cell viability (%). With the viability values (%) of the cells treated by the compound at different concentrations as input, the CC50 value was determined by the non-linear regression with normalised dose-response fit implemented in GraphPad Prism version 5 software (GraphPad Software Inc., La Jolla, CA). The experiment was performed in duplicate, and paclitaxel was used as the positive drug for this assay.

[6] = Cytotoxicity, SRB assay, HUVEC; format: cell-based, human; settings: human, HUVEC cells, read-out: CC50 for HUVECs (positive control)
Protocol: as §2

COc1ccc2c(c1)[C@]13CCCC[C@@H]1[C@H](C2)N(C)CC3 [dextromethorphan, reference compound]
half-life at 1 µM [1]: 16 min

CC(C)[N+](C)(CCOC(=O)C1c2ccccc2Oc2ccccc21)C(C)C [propantheline, reference compound]
half-life at 1 µM (in vitro): 66.3 min

CCc1[nH]c(C(=O)NC2CCN(c3nnc(C(C)(C)O)s3)CC2OC)nc1Cl (stereo not drawn) [DS-2969b]
S. aureus DNA gyrase IC50 (S. aureus DNA gyrase): 0.14 µg/mL

CN[C@H](CC(C)C)C(=O)N[C@H]1C(=O)N[C@@H](CC(N)=O)C(=O)N[C@H]2C(=O)N[C@H]3C(=O)N[C@H](C(=O)N[C@H](C(=O)O)c4cc(O)cc(O)c4-c4cc3ccc4O)[C@H](O)c3ccc(c(Cl)c3)Oc3cc2cc(c3O[C@@H]2O[C@H](CO)[C@@H](O)[C@H](O)[C@H]2O[C@H]2C[C@](C)(N)[C@H](O)[C@H](C)O2)Oc2ccc(cc2Cl)[C@H]1O [Vancomycin, reference compound]
MIC ([2]; ATCC 33591 / MRSA): 2 µg/mL (≈ 1.38 µM) | MIC ([2]; ATCC 43300 / MRSA): 1 µg/mL (≈ 0.69 µM) | MIC ([2]; MRSA): 0.5 µg/mL (≈ 0.345 µM) | MIC (MRSA/VISA strains): 0.5 to 4 µg/mL (≈ 0.345 to 2.76 µM) | MIC ([3]; Staphylococcus aureus, ATCC 700699 / VISA): 4 µg/mL (≈ 2.76 µM) | MIC ([3]; Staphylococcus aureus, VISA): 4 µg/mL (≈ 2.76 µM) | MIC ([3]; VISA HIP 5827): 4.0 µg/mL (≈ 2.76 µM) | MIC ([4]; ATCC 29213 / BAA-1708 / BAA-976 / MSSA, read-out: MIC over the five MSSA isolates, ATCC 29213, 15, 18-3, BAA976, BAA1708, span over isolates): 0.5 to 1 µg/mL (≈ 0.345 to 0.69 µM) | MIC ([4]; ATCC 29213 / MSSA, MSSA ATCC 29213): 1 µg/mL (≈ 0.69 µM) | MIC ([4]; BAA-976 / MSSA, MSSA BAA976): 0.5 µg/mL (≈ 0.345 µM) | MIC ([4]; BAA-1708 / MSSA, MSSA BAA1708): 1 µg/mL (≈ 0.69 µM) | MIC ([4]; MSSA, MSSA 15): 1 µg/mL (≈ 0.69 µM) | MIC ([4]; MSSA, MSSA 18-3): 0.5 µg/mL (≈ 0.345 µM)

CC(=O)O[C@H]1C(=O)[C@@]2(C)[C@H]([C@H](OC(=O)c3ccccc3)[C@]3(O)C[C@H](OC(=O)[C@H](O)[C@@H](NC(=O)c4ccccc4)c4ccccc4)C(C)=C1C3(C)C)[C@]1(OC(C)=O)CO[C@@H]1C[C@@H]2O [Paclitaxel, reference compound]
CC50 at 72 h [5]: 12.7 nM | CC50 at 72 h [6]: 1.7 nM
